# Measurements taken from patent publication US8414885B2, “Methods and compositions for treating cancer” (priority 2009, dated 2013).
# System: caspase-3
# Experiment: Immunoblotting for caspase-3 activation in infected melanoma cells
# Assay type: cell-based, human
# Conditions: delta-PK infected cultures, PD150606 100 μM, 24 hrs p.i.
# From the text: FIG. 6. Calpain and caspase-7 and caspace-3 are activated in delta-PK infected melanoma cells. […] Data were quantified by densitometry and expressed as the ratio of the p76/p80 and p28 densitometric units +/−SD, respectively. Representatives of three replicate experiments are shown (***p<0.001 vs. Mock). B. The immunoblots in FIG. 6A were sequentially stripped and re-probed with antibodies to activated caspase-7, activated caspase-3, and actin. Data were quantified by densitometry and results are expressed as densitometric units +/−SD (**p<0.01, ***p<0.001 vs. Mock). C. […]
# Cultured cells were lysed with radioimmunoprecipitation buffer [RIPA; 20 mM Tris-HCl (pH 7.4), […], 1% Nonidet P-40, 0.1% sodium dodecyl sulfate (SDS), 0.5% sodium deoxycholate] supplemented with protease and phosphatase inhibitor cocktails (Sigma-Aldrich), and sonicated twice for 30 seconds at 25% output power with a sonicator ultrasonic processor (Misonix, Inc., Farmingdale, N.Y.). […] Protein concentration was determined by the bicinchoninic assay (Pierce, Rockford, Ill.), and 100 μg protein samples were resolved by SDS-polyacrylamide gel elecrophoresis (SDS-PAGE) and transferred to polyvinylidene fluoride membranes followed by immunoblotting. […] Quantitation was by densitometric scanning with the Bio-Rad GS-700 imaging densitometer (Bio-Rad, Hercules, Calif.). […]
smiles,measurement,value
O=C(O)/C(S)=C/c1ccc(I)cc1 [PD150606],effect of inhibitor on levels of caspase-3p17 cleavage product,increased
